The source of these data is patent publication US10195196B2, “1,4-disubstituted pyridazine analogs there of and methods for treating SMN-deficiency-related conditions” (NOVARTIS AG, priority 2012, dated 2019).

Each structure is given as a SMILES string.

The assay has as its system SMN protein. Kind of assay: cellular SMN ELISA (SMN protein elevation). The assay is classed as cell-based. The following applies: ELISA condition 2: compound concentration 100 pM-10 uM, myoblast cell line from SMNdelta7 mouse model, 24 hours treatment; for SMN activity Fold: fold activation over DMSO control. An outline of the steps: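 SMNdelta7 mouse-derived myoblasts were treated with compound for 24 h, then lysed. SMN protein was quantified by sandwich ELISA (HRP/TMB, 450 nm) and reported as fold over DMSO and EC50, over 20 nM–10 μM or 100 pM–10 μM depending on condition.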

Regarding `CN(c1ccc(-c2ccc(-n3cc(C(N)=O)cn3)cc2O)nn1)C1CC(C)(C)NC(C)(C)C1` [Example 42-11, 1-(3-hydroxy-4-(6-(methyl(2,2,6,6-tetramethylpiperidin-4-yl)amino)pyridazin-3-yl)phenyl)-1H-pyrazole-4-carboxamide], a half-maximal response (EC50) required 239 nM and the “SMN activity Fold” value is 3.37 Fold.
In the case of `OCCN1C[C@@H]2CN(c3ccc(-c4ccc(-c5cn[nH]c5)cc4O)nn3)C[C@@H]2C1` [Example 43-1, 2-(6-((3aR,6aS)-5-(2-hydroxyethyl)hexahydropyrrolo[3,4-c]pyrrol-2(1H)-yl)pyridazin-3-yl)-5-(1H-pyrazol-4-yl)phenol], it took 40 nM to reach a half-maximal effect (EC50) and the “SMN activity Fold” value worked out at 3.04 Fold.
`CN1C[C@@H]2CN(c3ccc(-c4ccc(-c5cn[nH]c5)cc4O)nn3)C[C@@H]2C1` [Example 43-3, 2-(6-((3aR,6aS)-5-methylhexahydropyrrolo[3,4-c]pyrrol-2(1H)-yl)pyridazin-3-yl)-5-(1H-pyrazol-4-yl)phenol]: a half-maximal response (EC50) required 19 nM and the “SMN activity Fold” value came to 2.39 Fold.
In the case of `CN1C[C@@H]2CN(c3ccc(-c4ccc(-c5ccn(C)c(=O)c5)cc4O)nn3)C[C@@H]2C1` [Example 43-4, 4-(3-hydroxy-4-(6-(5-methylhexahydropyrrolo[3,4-c]pyrrol-2(1H)-yl)pyridazin-3-yl)phenyl)-1-methylpyridin-2(1H)-one], the EC50 worked out at 41 nM and the “SMN activity Fold” value is recorded as 2.94 Fold.
For `CN1CC[C@@H]2CN(c3ccc(-c4ccc(-c5ccn(C)c(=O)c5)cc4O)nn3)C[C@@H]21` [Example 43-5, 4-(3-hydroxy-4-(6-((3aR,6aR)-1-methylhexahydropyrrolo[3,4-b]pyrrol-5(1H)-yl)pyridazin-3-yl)phenyl)-1-methylpyridin-2(1H)-one] the same measures were 159 nM and 2.29 Fold.
Regarding `Cn1ccc(-c2ccc(-c3ccc(N4CCC5(CCCNC5)C4)nn3)c(O)c2)cc1=O` (stereo not drawn) [Example 43-7, 4-(4-(6-(2,7-diazaspiro[4.5]decan-2-yl)pyridazin-3-yl)-3-hydroxyphenyl)-1-methylpyridin-2(1H)-one], the EC50 amounted to 156 nM and the “SMN activity Fold” value came to 2.42 Fold.

As usually defined, the EC50 is the concentration that produces a half-maximal response. Low values mean higher potency in that assay, high ones lower potency in that assay.
